Measured values published in US11019818B2, “Herbicidal 3-substituted lactams” (FMC Corporation, priority 2017, dated 2021).

What was measured:
Assay type in all cases: in vivo
[1] = tested on: barnyardgrass (Echinochloa crus-galli); experiment: Test A postemergence, barnyardgrass; conditions: 0 to 100 scale (0 no effect, 100 complete control), approx. 10 d
Source text: (§1) Seeds of plant species selected from barnyardgrass (Echinochloa crus-galli), kochia (Kochia scoparia), ragweed (common ragweed, Ambrosia elatior), ryegrass, Italian (Italian ryegrass, Lolium multiflorum), foxtail, green (green foxtail, Setaria viridis), and pigweed (Amaranthus retroflexus) were planted into a blend of loam soil and sand and treated preemergence with a directed soil spray using test chemicals formulated in a non-phytotoxic solvent mixture which included a surfactant. At the same time, plants selected from these weed species and also wheat (Triticum aestivum), corn (Zea mays), blackgrass (Alopecurus myosuroides), and galium (catchweed bedstraw, Galium aparine) were planted in pots containing the same blend of loam soil and sand and treated with postemergence applications of test chemicals formulated in the same manner. Plants ranged in height from 2 to 10 cm and were in the one- to two-leaf stage for the postemergence treatment. Treated plants and untreated controls were maintained in a greenhouse for approximately 10 d, after which time all treated plants were compared to untreated controls and visually evaluated for injury. Plant response ratings, summarized in Table A, are based on a 0 to 100 scale where 0 is no effect and 100 is complete control. A dash (-) response means no test result.

kochia (Kochia scoparia) [2] = experiment: Test A postemergence, kochia; conditions: 0 to 100 scale (0 no effect, 100 complete control), approx. 10 d
Source text: as §1

[3] = tested on: ragweed (common ragweed, Ambrosia elatior); experiment: Test A postemergence, ragweed; conditions: 0 to 100 scale (0 no effect, 100 complete control), approx. 10 d
Source text: as §1

[4] = tested on: ryegrass, Italian (Italian ryegrass, Lolium multiflorum); experiment: Test A postemergence, Italian ryegrass; conditions: 0 to 100 scale (0 no effect, 100 complete control), approx. 10 d
Source text: as §1

[5] = tested on: foxtail, green (green foxtail, Setaria viridis); experiment: Test A postemergence, green foxtail; conditions: 0 to 100 scale (0 no effect, 100 complete control), approx. 10 d
Source text: as §1

[6] = tested on: pigweed (Amaranthus retroflexus); experiment: Test A postemergence, pigweed; conditions: 0 to 100 scale (0 no effect, 100 complete control), approx. 10 d
Source text: as §1

[7] = tested on: wheat (Triticum aestivum); experiment: Test A postemergence, wheat; conditions: 0 to 100 scale (0 no effect, 100 complete control), approx. 10 d
Source text: as §1

corn (Zea mays) = experiment: Test A postemergence, corn; conditions: 0 to 100 scale (0 no effect, 100 complete control), approx. 10 d
Source text: as §1

[8] = tested on: blackgrass (Alopecurus myosuroides); experiment: Test A postemergence, blackgrass; conditions: 0 to 100 scale (0 no effect, 100 complete control), approx. 10 d
Source text: as §1

[9] = tested on: galium (catchweed bedstraw, Galium aparine); experiment: Test A postemergence, galium; conditions: 0 to 100 scale (0 no effect, 100 complete control), approx. 10 d
Source text: as §1

[10] = tested on: barnyardgrass (Echinochloa crus-galli); experiment: Test A preemergence, barnyardgrass; conditions: 0 to 100 scale (0 no effect, 100 complete control), approx. 10 d
Source text: as §1

kochia (Kochia scoparia) [11] = experiment: Test A preemergence, kochia; conditions: 0 to 100 scale (0 no effect, 100 complete control), approx. 10 d
Source text: as §1

[12] = tested on: ragweed (common ragweed, Ambrosia elatior); experiment: Test A preemergence, ragweed; conditions: 0 to 100 scale (0 no effect, 100 complete control), approx. 10 d
Source text: as §1

[13] = tested on: ryegrass, Italian (Italian ryegrass, Lolium multiflorum); experiment: Test A preemergence, Italian ryegrass; conditions: 0 to 100 scale (0 no effect, 100 complete control), approx. 10 d
Source text: as §1

[14] = tested on: foxtail, green (green foxtail, Setaria viridis); experiment: Test A preemergence, green foxtail; conditions: 0 to 100 scale (0 no effect, 100 complete control), approx. 10 d
Source text: as §1

[15] = tested on: pigweed (Amaranthus retroflexus); experiment: Test A preemergence, pigweed; conditions: 0 to 100 scale (0 no effect, 100 complete control), approx. 10 d
Source text: as §1

[16] = tested on: barnyardgrass (Echinochloa crus-galli); experiment: Test B flooded paddy test, barnyardgrass; conditions: Flood, 250 g ai/ha; applied to paddy water at 2-leaf stage; visual rating after 13 to 15 d; scale 0 to 100, 0 is no effect, 100 is complete control
Experimental: (§2) Plant species in the flooded paddy test selected from rice (Oryza sativa), sedge, umbrella (small-flower umbrella sedge, Cyperus difformis), ducksalad (Heteranthera limosa), and barnyardgrass (Echinochloa crus-galli) were grown to the 2-leaf stage for testing. At time of treatment, test pots were flooded to 3 cm above the soil surface, treated by application of test compounds directly to the paddy water, and then maintained at that water depth for the duration of the test. Treated plants and controls were maintained in a greenhouse for 13 to 15 d, after which time all species were compared to controls and visually evaluated. Plant response ratings, summarized in Table B, are based on a scale of 0 to 100 where 0 is no effect and 100 is complete control. A dash (-) response means no test result.

[17] = tested on: ducksalad (Heteranthera limosa); experiment: Test B flooded paddy test, ducksalad; conditions: Flood, 250 g ai/ha; applied to paddy water at 2-leaf stage; visual rating after 13 to 15 d; scale 0 to 100, 0 is no effect, 100 is complete control
Experimental: as §2

rice (Oryza sativa) = experiment: Test B flooded paddy test, rice; conditions: Flood, 250 g ai/ha; applied to paddy water at 2-leaf stage; visual rating after 13 to 15 d; scale 0 to 100, 0 is no effect, 100 is complete control
Experimental: as §2

[18] = tested on: sedge, umbrella (small-flower umbrella sedge, Cyperus difformis); experiment: Test B flooded paddy test, umbrella sedge; conditions: Flood, 250 g ai/ha; applied to paddy water at 2-leaf stage; visual rating after 13 to 15 d; scale 0 to 100, 0 is no effect, 100 is complete control
Experimental: as §2

Row | Structure (SMILES) | Plant response rating, Barnyardgrass ([1]; 31 g ai/ha) | Plant response rating, Barnyardgrass ([1]; 125 g ai/ha) | Plant response rating, Kochia (kochia (Kochia scoparia) [2]; 31 g ai/ha) | Plant response rating, Kochia (kochia (Kochia scoparia) [2]; 125 g ai/ha) | Plant response rating, Ragweed ([3]; 31 g ai/ha) | Plant response rating, Ragweed ([3]; 125 g ai/ha) | Plant response rating, Ryegrass, Italian ([4]; 31 g ai/ha) | Plant response rating, Ryegrass, Italian ([4]; 125 g ai/ha) | Plant response rating, Foxtail, Green ([5]; 31 g ai/ha) | Plant response rating, Foxtail, Green ([5]; 125 g ai/ha) | Plant response rating, Pigweed ([6]; 31 g ai/ha) | Plant response rating, Pigweed ([6]; 125 g ai/ha) | Plant response rating, Wheat ([7]; 31 g ai/ha) | Plant response rating, Wheat ([7]; 125 g ai/ha) | Plant response rating, Corn (corn (Zea mays); 31 g ai/ha) | Plant response rating, Corn (corn (Zea mays); 125 g ai/ha) | Plant response rating, Blackgrass ([8]; 31 g ai/ha) | Plant response rating, Blackgrass ([8]; 125 g ai/ha) | Plant response rating, Galium ([9]; 31 g ai/ha) | Plant response rating, Galium ([9]; 125 g ai/ha) | also measured
1 | CC(=O)[C@@]1(C(=O)Nc2cccc(F)c2F)C(=O)N(C)C[C@@H]1c1ccc(C(F)(F)F)cc1 [Compound 1, (3S,4R)-3-acetyl-N-(2,3-difluorophenyl)-1-methyl-2-oxo-4-[4-(trifluoromethyl)phenyl]-3-pyrrolidinecarboxamide] | 70 | 90 | 20 | 70 | 0 | 40 | 60 | 80 | 50 | 90 | 30 | 80 | 20 | 50 | 20 | 80 | 0 | 50 | 50 | 60 | Plant response rating, Barnyardgrass ([10]; 31 g ai/ha): 80; Plant response rating, Barnyardgrass ([10]; 125 g ai/ha): 90; Plant response rating, Kochia (kochia (Kochia scoparia) [11]; 31 g ai/ha): 40; Plant response rating, Kochia (kochia (Kochia scoparia) [11]; 125 g ai/ha): 80; Plant response rating, Ragweed ([12]; 31 g ai/ha): 20; Plant response rating, Ragweed ([12]; 125 g ai/ha): 70; Plant response rating, Ryegrass, Italian ([13]; 31 g ai/ha): 30; Plant response rating, Ryegrass, Italian ([13]; 125 g ai/ha): 60; Plant response rating, Foxtail, Green ([14]; 31 g ai/ha): 90; Plant response rating, Foxtail, Green ([14]; 125 g ai/ha): 90; Plant response rating, Pigweed ([15]; 31 g ai/ha): 50; Plant response rating, Pigweed ([15]; 125 g ai/ha): 90; Plant response rating, Barnyardgrass [16]: 70; Plant response rating, Ducksalad [17]: 90; Plant response rating, Rice (rice (Oryza sativa)): 0; Plant response rating, Sedge, Umbrella [18]: 0
2 | CC(=O)OC[C@@]1(C(=O)Nc2cccc(F)c2F)C(=O)N(C)C[C@@H]1c1ccc(C(F)(F)F)cc1 [Compound 2, (3S,4R)-3-[(acetyloxy)methyl]-N-(2,3-difluorophenyl)-1-methyl-2-oxo-4-[4-(trifluoromethyl)phenyl]-3-pyrrolidincarboxamide] | 0 | 50 | 0 | 40 | 0 | 40 | 20 | 50 | 20 | 70 | 20 | 40 | 0 | 20 | 0 | 40 | 0 | 10 | 0 | 40 | Plant response rating, Barnyardgrass ([10]; 31 g ai/ha): 50; Plant response rating, Barnyardgrass ([10]; 125 g ai/ha): 80; Plant response rating, Kochia (kochia (Kochia scoparia) [11]; 31 g ai/ha): 20; Plant response rating, Kochia (kochia (Kochia scoparia) [11]; 125 g ai/ha): 50; Plant response rating, Ragweed ([12]; 31 g ai/ha): 0; Plant response rating, Ragweed ([12]; 125 g ai/ha): 30; Plant response rating, Ryegrass, Italian ([13]; 31 g ai/ha): 0; Plant response rating, Ryegrass, Italian ([13]; 125 g ai/ha): 10; Plant response rating, Foxtail, Green ([14]; 31 g ai/ha): 60; Plant response rating, Foxtail, Green ([14]; 125 g ai/ha): 90; Plant response rating, Pigweed ([15]; 31 g ai/ha): 20; Plant response rating, Pigweed ([15]; 125 g ai/ha): 80; Plant response rating, Barnyardgrass [16]: 65; Plant response rating, Ducksalad [17]: 95; Plant response rating, Rice (rice (Oryza sativa)): 30; Plant response rating, Sedge, Umbrella [18]: 0
3 | CN1C[C@H](c2ccc(C(F)(F)F)cc2)[C@](CO)(C(=O)Nc2cccc(F)c2F)C1=O [Compound 4, (3S,4R)—N-(2,3-difluorophenyl)-3-(hydroxymethyl)-1-methyl-2-oxo-4-[4-(trifluoromethyl)phenyl]-3-pyrrolidinecarboxamide] | 0 | 60 | 0 | 60 | 0 | 0 | 0 | 50 | 10 | 60 | 30 | 70 | 0 | 20 | 0 | 50 | 0 | 40 | 20 | 40 | Plant response rating, Barnyardgrass ([10]; 31 g ai/ha): 30; Plant response rating, Barnyardgrass ([10]; 125 g ai/ha): 90; Plant response rating, Kochia (kochia (Kochia scoparia) [11]; 31 g ai/ha): 0; Plant response rating, Kochia (kochia (Kochia scoparia) [11]; 125 g ai/ha): 40; Plant response rating, Ragweed ([12]; 31 g ai/ha): 0; Plant response rating, Ragweed ([12]; 125 g ai/ha): 0; Plant response rating, Ryegrass, Italian ([13]; 31 g ai/ha): 0; Plant response rating, Ryegrass, Italian ([13]; 125 g ai/ha): 50; Plant response rating, Foxtail, Green ([14]; 31 g ai/ha): 50; Plant response rating, Foxtail, Green ([14]; 125 g ai/ha): 90; Plant response rating, Pigweed ([15]; 31 g ai/ha): 0; Plant response rating, Pigweed ([15]; 125 g ai/ha): 90; Plant response rating, Barnyardgrass [16]: 50; Plant response rating, Ducksalad [17]: 95; Plant response rating, Rice (rice (Oryza sativa)): 0; Plant response rating, Sedge, Umbrella [18]: 0
